{"source": "patent US20030143729A1", "about": "(Synaptic Pharmaceutical Corporation, priority 1992, published 2003)", "key": {"human GAT-1 [1]": {"molecular_target": "T1, human GAT-1 (Homo sapiens, UniProt P30531)", "T1 sequence (P30531 whole entry)": "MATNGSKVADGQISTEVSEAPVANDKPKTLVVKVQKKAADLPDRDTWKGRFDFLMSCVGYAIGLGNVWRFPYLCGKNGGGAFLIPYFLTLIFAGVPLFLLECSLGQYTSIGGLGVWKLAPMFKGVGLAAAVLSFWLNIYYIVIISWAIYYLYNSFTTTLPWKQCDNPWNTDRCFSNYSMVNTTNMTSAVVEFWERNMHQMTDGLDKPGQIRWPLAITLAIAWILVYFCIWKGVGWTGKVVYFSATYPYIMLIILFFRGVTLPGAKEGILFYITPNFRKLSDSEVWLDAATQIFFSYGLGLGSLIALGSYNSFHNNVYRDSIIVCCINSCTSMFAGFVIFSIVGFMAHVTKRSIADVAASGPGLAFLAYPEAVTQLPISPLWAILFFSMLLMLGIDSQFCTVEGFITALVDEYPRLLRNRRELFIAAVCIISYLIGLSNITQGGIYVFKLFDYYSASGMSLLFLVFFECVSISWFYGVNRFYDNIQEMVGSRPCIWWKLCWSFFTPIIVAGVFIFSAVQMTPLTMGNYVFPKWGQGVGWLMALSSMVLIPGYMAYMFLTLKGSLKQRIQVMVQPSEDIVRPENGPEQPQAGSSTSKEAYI", "conditions": "read-out: IC50 for inhibition of [3H]GABA uptake, human GAT-1", "protocol": "(§1) Cells were grown under standard conditions (37° C., 5% CO2) in Dulbecco's modified Eagles's medium (GIBCO, Grand Island, N.Y.).\n(§2) Cells grown in 24-well plates were washed 3× with HEPES-buffered saline (HBS, in mM: NaCl, 150; HEPES, 20; CaCl2, 1; glucose, 10; KCl, 5; MgCl2, 1; pH 7.4) and allowed to equilibrate on a 37° C. slide warmer. After 10 minutes the medium was removed and unlabeled drugs in HBS were added (450 μl/well). […] Plates were incubated at 37° C. for 10 minutes, then washed rapidly 3× with ice-cold HBS, using a 24-position plate washer (Brandel, Gaithersburg, Mass.; model PW-12). Cells were solubilized with 0.05% sodium deoxycholate/0.1N NaOH (0.25 ml/well), an aliquot neutralized with 1N HCl, and radioactivity was determined by scintillation counting. Protein was quantified in an aliquot of the solubilized cells using a BIO-RAD protein assay kit, according to the manufacturer's directions.\n(§3) Lipophilic inhibitors were dissolved in DMSO.\n(§4) Data Analysis: Competition curves were conducted in duplicate, using 10 concentrations of unlabeled drug."}, "hBGT-1 [2]": {"molecular_target": "T2, hBGT-1 (Homo sapiens, UniProt P48065)", "T2 sequence (P48065 1-614)": "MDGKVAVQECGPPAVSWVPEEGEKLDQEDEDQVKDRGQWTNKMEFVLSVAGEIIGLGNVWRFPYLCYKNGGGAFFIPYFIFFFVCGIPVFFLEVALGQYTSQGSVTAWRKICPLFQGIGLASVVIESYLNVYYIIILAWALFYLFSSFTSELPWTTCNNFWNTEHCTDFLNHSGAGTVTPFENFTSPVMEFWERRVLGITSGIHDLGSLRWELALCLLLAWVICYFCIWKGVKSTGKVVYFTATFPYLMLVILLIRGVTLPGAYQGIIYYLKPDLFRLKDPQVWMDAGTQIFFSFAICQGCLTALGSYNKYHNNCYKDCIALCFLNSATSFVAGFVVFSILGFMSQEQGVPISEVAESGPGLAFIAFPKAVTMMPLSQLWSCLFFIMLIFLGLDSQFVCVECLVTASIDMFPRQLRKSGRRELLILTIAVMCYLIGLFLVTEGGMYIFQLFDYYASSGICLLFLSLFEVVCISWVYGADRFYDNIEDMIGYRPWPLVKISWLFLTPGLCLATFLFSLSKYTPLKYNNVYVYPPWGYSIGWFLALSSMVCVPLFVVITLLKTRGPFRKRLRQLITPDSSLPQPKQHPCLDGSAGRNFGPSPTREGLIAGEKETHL", "conditions": "read-out: IC50 for inhibition of [3H]GABA uptake, human BGT-1; stable cell line; 50 nM [3H]GABA", "protocol": "as §1, §2, §3, §4"}, "animals": {"tested_on": "animals", "conditions": "in vivo; cited from earlier work"}, "hBGT-1 [3]": {"molecular_target": "T2, hBGT-1", "test": "cell-based", "protocol": "as §1, §2, §3, §4"}, "human GAT-1 [4]": {"molecular_target": "T1, human GAT-1", "test": "cell-based", "protocol": "as §1, §2, §3, §4"}}, "note": "Read-outs that look alike come from different tables or passages of the source."}
{"compound": "O=C(O)C1=CCCN(CCON=C(c2ccccc2)c2ccccc2)C1", "note": "[NNC-711]", "values": [{"measurement": "IC50", "setting": "human GAT-1 [1]", "value": "0.04 ± 0.01", "unit": "µM"}, {"measurement": "IC50", "setting": "hBGT-1 [2]", "value": "622 ± 265", "unit": "µM"}, {"measurement": "anticonvulsive activity in animals", "setting": "animals", "value": "anticonvulsive activity"}]}
{"compound": "O=C(O)C1=CCCNC1", "note": "[guvacine]", "values": [{"measurement": "IC50", "setting": "hBGT-1 [3]", "value": "> 1000", "unit": "µM"}]}
{"compound": "NCCC(=O)O", "note": "[β-alanine]", "values": [{"measurement": "IC50", "setting": "human GAT-1 [4]", "value": "5690 ± 1890", "unit": "µM"}, {"measurement": "IC50", "setting": "hBGT-1 [3]; IC50 at hBGT-1", "value": "> 1000", "unit": "µM"}, {"measurement": "IC50", "setting": "hBGT-1 [3]; IC50 for inhibition of [3H]GABA uptake, human BGT-1, stable cell line, 50 nM [3H]GABA", "value": "1320 ± 224", "unit": "µM"}]}
